Test results taken from US7910624B1, “Compositions for the treatment of blood disorders” (The Trustees of Boston University, priority 1995, dated 2011).

How the values were obtained:
[1] = tested on: Human erythroleukemia cells; assay: Fetal globin mRNA in erythroleukemia cells by primer extension; format: cell-based; settings: 1.0 mM, 4 days
Method: Compounds were tested for increased expression of the human globin genes in human erythroid cells. In addition, as the cell line being tested is a tumor cell line, the assay determines if differentiation, a growth inhibitory effect on cancer cells, is induced by the compounds tested. Human erythroleukemia cells were cultured in RPMI media with 10% fetal calf serum alone or with treatment with various compounds for 4 days. Globin mRNA was quantitated by primer extension analysis. Fetal globin mRNA was compared to the amount of fetal globin mRNA produced in untreated cells during the same culture period. The quantitation was expressed as a percent of alpha globin mRNA which was constant. Results are expressed proportional to α-globin mRNA (Table 3).

human erythroid cells = assay: DNA fragmentation by flow cytometry (propidium iodide); format: cell-based; settings: for effect in DNA fragmentation assays: summary statement
Method: (§1) Such activities might limit their utility for treatment of anemias such as occur in thalassemia, but alternatively would be useful for anticancer effects. To determine cell viability, human erythroid cells were cultured in the presence and absence of these compounds for 4 days and the amount of DNA fragmentation which occurred was measured.
Flow cytometric determination of DNA profiles and DNA fragmentation were determined. Cytometric analysis was performed with a FACScan (Becton Dickenson Instruments; Columbia, Md.). The data analysis and display were performed using the Cell-Fit software program. Approximately 0.5×10^6 cells were washed twice with PBS and resuspended in 1 ml of 1% sodium citrate, 0.1% Triton X-100 and […] of propidium iodide/ml. Resulting permeabilized cells were kept in the dark at 4° C. overnight before DNA profile or DNA fragmentation analysis (Table 4).

anemic juvenile baboons = assay: In vivo reticulocyte proliferation and globin expression in phlebotomized anemic baboons; parameters: species or system baboon
Summary of the method: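 Juvenile female baboons, phlebotomized daily to hemoglobin 7.0-7.5 g/dl, received compounds sequentially with washout to baseline reticulocytes, each animal its own control. HbF-positive reticulocytes were counted by dual-antibody FACS. γ/(γ+β) globin synthesis ratio came from ^3H-leucine labeling and chromatographic chain separation, unadjusted for phlebotomy.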

[2] = tested on: system A transport in K562 cells and nucleated erythroblasts from fetal liver; assay: System A (neutral amino acid) transport, 3H-MAIB uptake; format: cell-based, human; settings: 1 hour incubation, FIG. 12
Method: Inhibition of nutrient uptake is undesirable for treatment of anemias. Methyl aminoisobutyric acid (MAIB) labeled with tritium (^3H) is normally taken up by system A amino acid transport. Cold (unlabeled) compounds were added to cultures containing ^3H-MAIB and incubated for 1 hour. Cells were harvested and the amount of ^3H taken up by cells was quantitated by scintillation counting.

K562 cells = assay: Dose response, total and viable cells by trypan blue exclusion (FIG. 3); format: cell-based, human; settings: day 4
Method: FIG. 3 A FIG. 3E Cell viability as determined by the comparative numbers of total and viable K562 cells in the presence of increasing concentrations of (A) phenoxyacetic acid, (B) dihydrocinnamic acid, (C) butyric acid ethyl ester, (D) arginine butyrate, and (E) isobutyramide.
Dose response curves at dosages of up to 2.0 mM were also determined for phenoxyacetic acid (PAA; FIG. 3A), dihydrocinnamic acid (DHC; FIG. 3B), butyric acid ethyl ester (BAEE; FIG. 3C), arginine butyrate (AB; FIG. 3D) and isobutyramide (IBT; FIG. 3E). Cells were counted on day 4 of treatment and viable cells identified by trypan blue exclusion.

[3] = tested on: human erythroid cell line K562; assay: Cell viability / growth of K562 by Calcein-AM fluorescence; format: cell-based; settings: over 3 days
Method: as §1
Cell viability analyses were performed using fluorescent staining to detect living cells. Cells were in log phase of growth in 6-well dishes when used in proliferation assays. For enumeration of living cells, wells were washed once with medium to remove nonadherent or dead cells. Remaining live cells were labeled with Calcein-AM for 20 minutes at 37° C. and washed once. Fluorescence intensity of adherent live cells was read on a CytoFluor 2300 Fluorescence Plate Scanner (Millipore; Bedford, Mass.) at excitation and emission wavelengths of 485 and 530 nm, respectively. The fluorescence intensity of a well was proportional to the number of living cells in the well. Background fluorescence was measured separately for each plate and subtracted from all readings. Each experiment was performed in triplicate or quadruplicate. The standard deviation (SD) of repetitive readings was less than 30% of the mean.
At higher concentrations, still easily achievable in vivo, arginine butyrate (0.5 mM) and dihydrocinnamic acid (greater than 0.5 mM) inhibited growth of this tumor cell line by approximately 50%. Therefore, these compounds are also useful as anti-tumor agents.

[4] = 1.0 mM to 2.0 mM, untreated cells 26%
[5] = 2.0 mM, 4 days, controls 26%, 22%
[6] = 1,000 to 1,500 mg/kg/day, 4 days

For CCCC(=O)O [AB, arginine butyrate], the “induction of fetal globin mRNA in human cells” value [1] was “significantly increased”, the “Degraded DNA” value (human erythroid cells; 0.5 mM, 4 days, controls 26%, 22%) was 32% and the “Degraded DNA” value (human erythroid cells; [4]) was 44%. The “Degraded DNA” value (human erythroid cells; 1.0 mM, 4 days, controls 26%, 22%) was 34%, the “Degraded DNA” value (human erythroid cells; [5]) was 44% and the “effect in DNA fragmentation assays” value (human erythroid cells) was “decrease cell viability”. For the same compound, the “response of the same monkey” value (anemic juvenile baboons; 1,000 mg/kg for 5 days or 2,000 mg/kg for 3 days) was “had not responded”, the “system A transport of amino acids (3H-MAIB uptake)” value (shortened to “system A transport of amino acids”) [2] was “inhibited the neutral amino acid transport mechanism” and the “cell growth (dose response, FIG. 3)” value (K562 cells; concentrations above 0.2 mM) was “suppressed cell growth”. For the same compound, the “growth of K562” value ([3]; 0.2 mM) was “either did not inhibit, or slightly enhanced growth”.

In the case of O=C(O)COc1ccccc1 [PAA, Phenoxyacetic acid], the “induction of fetal globin mRNA in human cells” value [1] is reported as “significantly increased”, the “Gamma/Alpha (fetal globin mRNA proportional to α-globin mRNA)” value ([1]; untreated 0.46) is reported as 0.70 and the “Gamma Globin mRNA (increase ↑)” value ([1]; versus untreated) is reported as 24% ↑. The “Degraded DNA” value (human erythroid cells; [4]) was 20.6%, the “Degraded DNA” value (human erythroid cells; [5]) was 20.6% and the “effect in DNA fragmentation assays” value (human erythroid cells) was “reduce DNA fragmentation”. For the same compound, the “time the effect maintained itself after drug was discontinued” value (anemic juvenile baboons; 1,500 mg/kg each day, 5 days) was “two days”, the reticulocytes after treatment (anemic juvenile baboons; 1,500 mg/kg each day, 5 days, from 1.9%) was 9.2 % of all red blood cells and the “white blood cell count after treatment” value (anemic juvenile baboons; 1,500 mg/kg each day, 5 days, from 6.9) was 9.5 ×10^3 cells/μl. The “packed red blood cell volume after treatment” value (anemic juvenile baboons; 1,500 mg/kg each day, 5 days, from 22%) was 25.4%, the “fetal reticulocytes, fold above baseline” value (anemic juvenile baboons; [6]) was “eight-fold” and the “fetal reticulocytes, percent above baseline” value (anemic juvenile baboons; [6]) was 800%. For the same compound, the “increase in output of fetal globin production over basal levels” value (anemic juvenile baboons; [6]) was 4,000%, the “fetal globin protein synthesis after treatment” value (anemic juvenile baboons; 1,000 to 1,500 mg/kg/day, 4 days, from 0%) was 5% and the “fetal reticulocytes after treatment” value (anemic juvenile baboons; another juvenile baboon, intravenous 1,000 to 1,500 mg/kg/day, 4 days, from 2%) was 16%. The “total hemoglobin after treatment” value (anemic juvenile baboons; infused 1,500 mg/kg each day, 5 days (FIG. 7), from 6.8) was 7.6 grams/dl, the “proportion of fetal reticulocytes on treatment” value (anemic juvenile baboons; infused 5 days, 500, 1,000 and 1,500 mg/kg (8 hours each), after 3 days (FIG. 9), from 12%) was 27% and the “system A transport of amino acids” value ([2]; listed as phenoxy acetic acid) was “caused no significant inhibition and actually increased uptake of nutrients into cells”. For the same compound, the “system A transport of amino acids” value ([2]; listed as phenoxyacetic acid) was “do not significantly alter”, the “proliferation (dose response, FIG. 3)” value (K562 cells; up to 2.0 mM) was “did not significantly inhibit proliferation” and the “growth of K562” value ([3]; 0.5 mM) was “either did not inhibit, or slightly enhanced growth”.
